Measurements taken from ChEMBL document CHEMBL1201862, “PubChem BioAssay data set” (2004).
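Method: 48-hour compound exposure of cells in 96-well plates, five concentrations, linear interpolation of endpoints. GI50: concentration for 50% inhibition of growth.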 The source made the active and inactive calls. Cut-off read from the data, not from the text of the source: active = GI50 up to about 1.1 µM and inactive = higher.

Key:
Test in all cases: NCI-60 cell line screen, 48 h
NCI/ADR-RES = system: NCI/ADR-RES
UACC-257 = system: UACC-257
OVCAR-8 = system: OVCAR-8
Hs-578T = system: Hs-578T
Malme-3M = system: Malme-3M
U-251 = system: U-251
HT-29 = system: HT-29
RXF 393 = system: RXF 393
UACC-62 = system: UACC-62
SR = system: SR
MCF7 = system: MCF7
SNB-19 = system: SNB-19
ACHN = system: ACHN
LOX IMVI = system: LOX IMVI
SF-295 = system: SF-295
HOP-62 = system: HOP-62
SF-539 = system: SF-539
SF-268 = system: SF-268
NCI-H23 = system: NCI-H23
HL-60 = system: HL-60

Measured: GI50

CC[C@H](C)[C@H](NC(=O)[C@H](Cc1ccc(O)cc1)NCC(F)(F)F)C(=O)OC(C)(C)C
inactive: NCI/ADR-RES 11.7 µM | UACC-257 6.82 µM | OVCAR-8 12.4 µM | Hs-578T 10.3 µM | Malme-3M 10.2 µM | U-251 6.85 µM | HT-29 7.6 µM | RXF 393 7.16 µM | UACC-62 5.69 µM | SR 5.97 µM | MCF7 7.74 µM | SNB-19 7.96 µM | ACHN 7.33 µM | LOX IMVI 8.67 µM | SF-295 6.9 µM | HOP-62 9.25 µM | SF-539 9.71 µM | SF-268 9.71 µM | NCI-H23 8.59 µM

O=c1c(=O)c2c(Br)sc(Br)c2c1=O
inactive: NCI/ADR-RES 32.7 µM | UACC-257 19.5 µM | OVCAR-8 18.3 µM | Hs-578T 31 µM | Malme-3M 17.7 µM | U-251 23.6 µM | HT-29 25 µM | RXF 393 18.7 µM | UACC-62 20.1 µM | SR 20.6 µM | MCF7 20.3 µM | SNB-19 70.6 µM | ACHN 20.6 µM | LOX IMVI 19.7 µM | SF-295 > 100 µM | HOP-62 30.2 µM | SF-539 19.5 µM | SF-268 33 µM | NCI-H23 20.3 µM

O=C1C2C=CC1C1C(=O)OC(=O)C21 (stereo not given)
inactive: NCI/ADR-RES > 100 µM | UACC-257 > 100 µM | OVCAR-8 > 100 µM | Hs-578T > 100 µM | Malme-3M > 100 µM | U-251 > 100 µM | HT-29 > 100 µM | HL-60 > 100 µM | UACC-62 > 100 µM | SR > 100 µM | MCF7 > 100 µM | SNB-19 > 100 µM | ACHN > 100 µM | LOX IMVI > 100 µM | SF-295 > 100 µM | HOP-62 > 100 µM | SF-539 > 100 µM | SF-268 > 100 µM | NCI-H23 > 100 µM

COC(=O)C1Cc2c([nH]c3ccccc23)-c2[nH]c3ccccc3c2CC(NC(C)=O)C(=O)N2CCCC2C(=O)N1 (stereo not given)
inactive: NCI/ADR-RES > 100 µM | UACC-257 > 100 µM | OVCAR-8 > 100 µM | Hs-578T > 100 µM | U-251 > 100 µM | HT-29 > 100 µM | RXF 393 > 100 µM | UACC-62 > 100 µM | SR > 100 µM | MCF7 > 100 µM | SNB-19 > 100 µM | ACHN > 100 µM | LOX IMVI > 100 µM | SF-295 > 100 µM | HOP-62 > 100 µM | SF-539 > 100 µM | SF-268 > 100 µM | NCI-H23 > 100 µM
